Laboratory results reported in US20050197350A1, “Novel quinoline, tetrahydroquinazoline, and pyrimidine derivatives and methods of treatment related to the use thereof” (TAISHO PHARMACEUTICAL CO., LTD., priority 2003, published 2005).

system: MCH receptors; experiment: MCH receptor activity class (method not given); details: class by percent of control at 10^−7 M or IC50

**Q.** How did the class turn out when Cc1cc(N(C)C)nc(N[C@H]2CC[C@@H](C(=O)NCc3cccc(C(F)(F)F)c3)CC2)n1 [compound 2813, cis-4-{[4-(dimethylamino)-6-methylpyrimidin-2-yl]amino}-N-[3-(trifluoromethyl)benzyl]cyclohexanecarboxamide] was run?
**A.** 2 (Class 2: The value of percent of control at 10^−7 M was from 40% to 60% or the value of IC′50 was from 50 nM to 200 nM.)

**Q.** How did the class turn out when Cc1cc(N(C)C)nc(N[C@H]2CC[C@@H](C(=O)NCc3cc(C(F)(F)F)cc(C(F)(F)F)c3)CC2)n1 [compound 2814, cis-N-[3,5-bis(trifluoromethyl)benzyl]-4-{[4-(dimethylamino)-6-methylpyrimidin-2-yl]amino}cyclohexanecarboxamide] was run?
**A.** 1 (Class 1: The value of percent of control at 10^−7 M was less than 40% or the value of IC50 was less than 50 nM.)

**Q.** Which class does the source give for COc1cccc(CNC(=O)[C@H]2CC[C@@H](Nc3nc(C)cc(N(C)C)n3)CC2)c1 [compound 2815, cis-4-{[4-(dimethylamino)-6-methylpyrimidin-2-yl]amino}-N-(3-methoxybenzyl)cyclohexanecarboxamide] here?
**A.** 1 (Class 1: The value of percent of control at 10^−7 M was less than 40% or the value of IC50 was less than 50 nM.)

**Q.** Which class does the source give for Cc1cc(N(C)C)nc(N[C@H]2CC[C@@H](C(=O)NCc3ccc(Cl)cc3)CC2)n1 [compound 2816, cis-N-(4-chlorobenzyl)-4-{[4-(dimethylamino)-6-methylpyrimidin-2-yl]amino}cyclohexanecarboxamide] here?
**A.** 1 (Class 1: The value of percent of control at 10^−7 M was less than 40% or the value of IC50 was less than 50 nM.)

**Q.** For Cc1cc(N(C)C)nc(N[C@H]2CC[C@@H](C(=O)NCc3ccc(Cl)c(Cl)c3)CC2)n1 [compound 2817, cis-N-(3,4-dichlorobenzyl)-4-{[4-(dimethylamino)-6-methylpyrimidin-2-yl]amino}cyclohexanecarboxamide], which class is on record?
**A.** 1 (Class 1: The value of percent of control at 10^−7 M was less than 40% or the value of IC50 was less than 50 nM.)

**Q.** Cc1cc(N(C)C)nc(N[C@H]2CC[C@@H](C(=O)NCc3ccc(F)cc3F)CC2)n1 [compound 2818, cis-N-(2,4-difluorobenzyl)-4-{[4-(dimethylamino)-6-methylpyrimidin-2-yl]amino}cyclohexanecarboxamide] was tested. Which class did it give?
**A.** 1 (Class 1: The value of percent of control at 10^−7 M was less than 40% or the value of IC50 was less than 50 nM.)

**Q.** Cc1cc(N(C)C)nc(N[C@H]2CC[C@@H](C(=O)NCc3cc(F)ccc3F)CC2)n1 [compound 2819, cis-N-(2,5-difluorobenzyl)-4-{[4-(dimethylamino)-6-methylpyrimidin-2-yl]amino}cyclohexanecarboxamide] was tested. Which class did it give?
**A.** 1 (Class 1: The value of percent of control at 10^−7 M was less than 40% or the value of IC50 was less than 50 nM.)

**Q.** Cc1cc(N(C)C)nc(N[C@H]2CC[C@@H](C(=O)NCc3cccc(F)c3F)CC2)n1 [compound 2820, cis-N-(2,3-difluorobenzyl)-4-{[4-(dimethylamino)-6-methylpyrimidin-2-yl]amino}cyclohexanecarboxamide] was tested. Which class did it give?
**A.** 1 (Class 1: The value of percent of control at 10^−7 M was less than 40% or the value of IC50 was less than 50 nM.)

**Q.** For Cc1cc(N(C)C)nc(N[C@H]2CC[C@@H](C(=O)NCc3ccc(Br)cc3F)CC2)n1 [compound 2821, cis-N-(4-bromo-2-fluorobenzyl)-4-{[4-(dimethylamino)-6-methylpyrimidin-2-yl]amino}cyclohexanecarboxamide], which class is on record?
**A.** 1 (Class 1: The value of percent of control at 10^−7 M was less than 40% or the value of IC50 was less than 50 nM.)

**Q.** For Cc1cccc(CNC(=O)[C@H]2CC[C@@H](Nc3nc(C)cc(N(C)C)n3)CC2)c1 [compound 2822, cis-4-{[4-(dimethylamino)-6-methylpyrimidin-2-yl]amino}-N-(3-methylbenzyl)cyclohexanecarboxamide], which class is on record?
**A.** 1 (Class 1: The value of percent of control at 10^−7 M was less than 40% or the value of IC50 was less than 50 nM.)

**Q.** Cc1cc(N(C)C)nc(N[C@H]2CC[C@@H](C(=O)NCc3ccccc3OC(F)(F)F)CC2)n1 [compound 2823, cis-4-{[4-(dimethylamino)-6-methylpyrimidin-2-yl]amino}-N-[2-(trifluoromethoxy)benzyl]cyclohexanecarboxamide] was tested. Which class did it give?
**A.** 1 (Class 1: The value of percent of control at 10^−7 M was less than 40% or the value of IC50 was less than 50 nM.)

**Q.** How did the class turn out when COc1cccc(C(=O)N[C@H]2CC[C@@H](Nc3nc(C)c(C)c(N(C)C)n3)CC2)c1 [compound 2824, N-(cis-4-{[4-(dimethylamino)-5,6-dimethylpyrimidin-2-yl]amino}cyclohexyl)-3-methoxybenzamide] was run?
**A.** 1 (Class 1: The value of percent of control at 10^−7 M was less than 40% or the value of IC50 was less than 50 nM.)

**Q.** For Cc1nc(N[C@H]2CC[C@@H](NC(=O)c3cc(O)nc(O)c3)CC2)nc(N(C)C)c1C [compound 2825], which class is on record?
**A.** 3 (Class 3 The value of percent of control at 10^−7 M was more than 60% or the value of IC50 was more than 200 nM.)

**Q.** How did the class turn out when Cc1nc(N[C@H]2CC[C@@H](NC(=O)c3cnccn3)CC2)nc(N(C)C)c1C [compound 2826] was run?
**A.** 3 (Class 3 The value of percent of control at 10^−7 M was more than 60% or the value of IC50 was more than 200 nM.)

**Q.** Cc1nc(N[C@H]2CC[C@@H](NC(=O)c3ccc(O)nc3)CC2)nc(N(C)C)c1C [compound 2827] was tested. Which class did it give?
**A.** 3 (Class 3 The value of percent of control at 10^−7 M was more than 60% or the value of IC50 was more than 200 nM.)

**Q.** Which class does the source give for Cc1cc(C(=O)N[C@H]2CC[C@@H](Nc3nc(C)c(C)c(N(C)C)n3)CC2)no1 [compound 2828, N-(cis-4-{[4-(dimethylamino)-5,6-dimethylpyrimidin-2-yl]amino}cyclohexyl)-5-methylisoxazole-3-carboxamide] here?
**A.** 2 (Class 2: The value of percent of control at 10^−7 M was from 40% to 60% or the value of IC′50 was from 50 nM to 200 nM.)

**Q.** Cc1nc(C(=O)N[C@H]2CC[C@@H](Nc3nc(C)c(C)c(N(C)C)n3)CC2)co1 [compound 2830, N-(cis-4-{[4-(dimethylamino)-5,6-dimethylpyrimidin-2-yl]amino}cyclohexyl)-2-methyl-1,3-oxazole-4-carboxamide] was tested. Which class did it give?
**A.** 2 (Class 2: The value of percent of control at 10^−7 M was from 40% to 60% or the value of IC′50 was from 50 nM to 200 nM.)

**Q.** For Cc1ncccc1C(=O)N[C@H]1CC[C@@H](Nc2nc(C)c(C)c(N(C)C)n2)CC1 [compound 2831], which class is on record?
**A.** 3 (Class 3 The value of percent of control at 10^−7 M was more than 60% or the value of IC50 was more than 200 nM.)

**Q.** For COc1ccc(C(=O)N[C@H]2CC[C@@H](Nc3nc(C)c(C)c(N(C)C)n3)CC2)c(OC)n1 [compound 2832, N-(cis-4-{[4-(dimethylamino)-5,6-dimethylpyrimidin-2-yl]amino}cyclohexyl)-2,6-dimethoxynicotinamide], which class is on record?
**A.** 1 (Class 1: The value of percent of control at 10^−7 M was less than 40% or the value of IC50 was less than 50 nM.)

**Q.** With Cc1nc(N[C@H]2CC[C@@H](NC(=O)c3nccnc3N)CC2)nc(N(C)C)c1C [compound 2833] as the compound, how does the class read?
**A.** 2 (Class 2: The value of percent of control at 10^−7 M was from 40% to 60% or the value of IC′50 was from 50 nM to 200 nM.)

**Q.** Which class does the source give for CCOc1ncccc1C(=O)N[C@H]1CC[C@@H](Nc2nc(C)c(C)c(N(C)C)n2)CC1 [compound 2834] here?
**A.** 3 (Class 3 The value of percent of control at 10^−7 M was more than 60% or the value of IC50 was more than 200 nM.)

**Q.** With Cc1nc(N[C@H]2CC[C@@H](NC(=O)c3ccccn3)CC2)nc(N(C)C)c1C [compound 2835] as the compound, how does the class read?
**A.** 3 (Class 3 The value of percent of control at 10^−7 M was more than 60% or the value of IC50 was more than 200 nM.)

**Q.** How did the class turn out when Cc1nc(N[C@H]2CC[C@@H](NC(=O)c3cccc(C#N)c3)CC2)nc(N(C)C)c1C [compound 2836, 3-cyano-N-(cis-4-{[4-(dimethylamino)-5,6-dimethylpyrimidin-2-yl]amino}cyclohexyl)benzamide] was run?
**A.** 1 (Class 1: The value of percent of control at 10^−7 M was less than 40% or the value of IC50 was less than 50 nM.)

**Q.** How did the class turn out when Cc1cccc(C(=O)N[C@H]2CC[C@@H](Nc3nc(C)c(C)c(N(C)C)n3)CC2)c1 [compound 2837, N-(cis-4-{[4-(dimethylamino)-5,6-dimethylpyrimidin-2-yl]amino}cyclohexyl)-3-methylbenzamide] was run?
**A.** 1 (Class 1: The value of percent of control at 10^−7 M was less than 40% or the value of IC50 was less than 50 nM.)

**Q.** For Cc1nc(N[C@H]2CC[C@@H](NC(=O)c3cccc(Cl)c3)CC2)nc(N(C)C)c1C [compound 2838, 3-chloro-N-(cis-4-{[4-(dimethylamino)-5,6-dimethylpyrimidin-2-yl]amino}cyclohexyl)benzamide], which class is on record?
**A.** 1 (Class 1: The value of percent of control at 10^−7 M was less than 40% or the value of IC50 was less than 50 nM.)

**Q.** How did the class turn out when Cc1nc(N[C@H]2CC[C@@H](NC(=O)c3cccc(Br)c3)CC2)nc(N(C)C)c1C [compound 2839, 3-bromo-N-(cis-4-{[4-(dimethylamino)-5,6-dimethylpyrimidin-2-yl]amino}cyclohexyl)benzamide] was run?
**A.** 1 (Class 1: The value of percent of control at 10^−7 M was less than 40% or the value of IC50 was less than 50 nM.)

**Q.** Which class does the source give for COc1cc(OC)cc(C(=O)N[C@H]2CC[C@@H](Nc3nc(C)c(C)c(N(C)C)n3)CC2)c1 [compound 2840, N-(cis-4-{[4-(dimethylamino)-5,6-dimethylpyrimidin-2-yl]amino}cyclohexyl)-3,5-dimethoxybenzamide] here?
**A.** 1 (Class 1: The value of percent of control at 10^−7 M was less than 40% or the value of IC50 was less than 50 nM.)

**Q.** Which class does the source give for Cc1nc(N[C@H]2CC[C@@H](NC(=O)c3cc(C(F)(F)F)cc(C(F)(F)F)c3)CC2)nc(N(C)C)c1C [compound 2841, N-(cis-4-{[4-(dimethylamino)-5,6-dimethylpyrimidin-2-yl]amino}cyclohexyl)-3,5-bis(trifluoromethyl)benzamide] here?
**A.** 1 (Class 1: The value of percent of control at 10^−7 M was less than 40% or the value of IC50 was less than 50 nM.)

**Q.** How did the class turn out when Cc1nc(N[C@H]2CC[C@@H](NC(=O)c3ccc(Cl)c(Cl)c3)CC2)nc(N(C)C)c1C [compound 2842, 3,4-dichloro-N-(cis-4-{[4-(dimethylamino)-5,6-dimethylpyrimidin-2-yl]amino}cyclohexyl)benzamide] was run?
**A.** 1 (Class 1: The value of percent of control at 10^−7 M was less than 40% or the value of IC50 was less than 50 nM.)
